Experiments:
Assay in all cases: Test F preemergence test
bermudagrass = format: in vivo, Cynodon dactylon; details: scale 0 to 100
In short: (§1)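 Test chemicals in a non-phytotoxic solvent mixture containing a surfactant were applied preemergence to sown seeds or postemergence to sugarcane plants. Treated plants and controls were held in a greenhouse for 14 to 21 days, then visually evaluated against controls.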

common mallow = format: in vivo, Malva sylvestris; details: scale 0 to 100
In short: as §1

Italian ryegrass = format: in vivo, Lolium multiflorum; details: scale 0 to 100
In short: as §1

Surinam grass = format: in vivo, Brachiaria decumbens; details: scale 0 to 100
In short: as §1

common ragweed = format: in vivo, Ambrosia elation; details: scale 0 to 100
In short: as §1

naked crabgrass = format: in vivo, Digitaria nuda; details: scale 0 to 100
In short: as §1

common chickweed = format: in vivo, Stellaria media; details: scale 0 to 100
In short: as §1

annual bluegrass = format: in vivo, Poa annua; details: scale 0 to 100
In short: as §1

common purslane = format: in vivo, Portulaca oleracea; details: scale 0 to 100
In short: as §1

large crabgrass = format: in vivo, Digitaria sanguinalis; details: scale 0 to 100
In short: as §1

prickly sida = format: in vivo, Sida spinosa; details: scale 0 to 100
In short: as §1

pitted morningglory = format: in vivo, Ipomoea lacunosa; details: scale 0 to 100
In short: as §1

southern sandbur = format: in vivo, Cenchrus echinatus; details: scale 0 to 100
In short: as §1

Canada horseweed = format: in vivo, Conyza canadensis; details: 125 g ai/ha, preemergence, scale 0 to 100
In short: as §1

mustard = format: in vivo, Brassica nigra; details: scale 0 to 100
In short: as §1

guineagrass = format: in vivo, Panicum maximum; details: scale 0 to 100
In short: as §1

green foxtail = format: in vivo, Setaria viridis; details: scale 0 to 100
In short: as §1

barnyardgrass = format: in vivo, Echinochloa crus-galli; details: scale 0 to 100
In short: as §1

field bindweed = format: in vivo, Convolvulus arvensis; details: scale 0 to 100
In short: as §1

quackgrass = format: in vivo, Elytrigia repens; details: scale 0 to 100
In short: as §1

Cc1cc[n+]([O-])c(S(=O)(=O)C(C)c2c(C(F)(F)F)nn(C)c2OC(F)F)c1 (stereo not drawn) [Compound 11]
Bermudagrass plant response rating (bermudagrass; 62 g ai/ha, Preemergence): 98
Bermudagrass plant response rating (bermudagrass; 125 g ai/ha, preemergence): 100
Plant response rating, Bermudagrass (bermudagrass; Preemergence, 16 g ai/ha): 35
Plant response rating, Bermudagrass (bermudagrass; Preemergence, 31 g ai/ha): 70
Mallow plant response rating (common mallow; 62 g ai/ha, Preemergence): 100
Mallow plant response rating (common mallow; 125 g ai/ha, preemergence): 100
Plant response rating, Mallow (common mallow; Preemergence, 16 g ai/ha): 30
Plant response rating, Mallow (common mallow; Preemergence, 31 g ai/ha): 30
Ryegrass, Italian plant response rating (Italian ryegrass; 62 g ai/ha, Preemergence): 75
Ryegrass, Italian plant response rating (Italian ryegrass; 125 g ai/ha, preemergence): 95
Plant response rating, Ryegrass, Italian (Italian ryegrass; Preemergence, 16 g ai/ha): 35
Plant response rating, Ryegrass, Italian (Italian ryegrass; Preemergence, 31 g ai/ha): 50
Surinam Grass plant response rating (Surinam grass; 62 g ai/ha, Preemergence): 100
Surinam Grass plant response rating (Surinam grass; 125 g ai/ha, preemergence): 100
Plant response rating, Surinam Grass (Surinam grass; Preemergence, 31 g ai/ha): 98
Ragweed plant response rating (common ragweed; 62 g ai/ha, Preemergence): 75
Ragweed plant response rating (common ragweed; 125 g ai/ha, preemergence): 100
Plant response rating, Ragweed (common ragweed; Preemergence, 16 g ai/ha): 30
Plant response rating, Ragweed (common ragweed; Preemergence, 31 g ai/ha): 65
Crabgrass, Naked plant response rating (naked crabgrass; 62 g ai/ha, Preemergence): 98
Crabgrass, Naked plant response rating (naked crabgrass; 125 g ai/ha, preemergence): 100
Plant response rating, Crabgrass, Naked (naked crabgrass; Preemergence, 16 g ai/ha): 90
Plant response rating, Crabgrass, Naked (naked crabgrass; Preemergence, 31 g ai/ha): 98
Chickweed plant response rating (common chickweed; 62 g ai/ha, Preemergence): 100
Chickweed plant response rating (common chickweed; 125 g ai/ha, preemergence): 100
Plant response rating, Chickweed (common chickweed; Preemergence, 16 g ai/ha): 70
Plant response rating, Chickweed (common chickweed; Preemergence, 31 g ai/ha): 80
Bluegrass plant response rating (annual bluegrass; 62 g ai/ha, Preemergence): 60
Bluegrass plant response rating (annual bluegrass; 125 g ai/ha, preemergence): 90
Plant response rating, Bluegrass (annual bluegrass; Preemergence, 16 g ai/ha): 0
Plant response rating, Bluegrass (annual bluegrass; Preemergence, 31 g ai/ha): 30
Purslane plant response rating (common purslane; 62 g ai/ha, Preemergence): 70
Purslane plant response rating (common purslane; 125 g ai/ha, preemergence): 80
Plant response rating, Purslane (common purslane; Preemergence, 16 g ai/ha): 40
Plant response rating, Purslane (common purslane; Preemergence, 31 g ai/ha): 60
Crabgrass, Large plant response rating (large crabgrass; 62 g ai/ha, Preemergence): 98
Crabgrass, Large plant response rating (large crabgrass; 125 g ai/ha, preemergence): 100
Plant response rating, Crabgrass, Large (large crabgrass; Preemergence, 16 g ai/ha): 60
Plant response rating, Crabgrass, Large (large crabgrass; Preemergence, 31 g ai/ha): 80
Prickly Sida plant response rating (prickly sida; 62 g ai/ha, Preemergence): 95
Prickly Sida plant response rating (prickly sida; 125 g ai/ha, preemergence): 100
Plant response rating, Prickly Sida (prickly sida; Preemergence, 16 g ai/ha): 0
Plant response rating, Prickly Sida (prickly sida; Preemergence, 31 g ai/ha): 70
Morningglory plant response rating (pitted morningglory; 62 g ai/ha, Preemergence): 90
Morningglory plant response rating (pitted morningglory; 125 g ai/ha, preemergence): 100
Plant response rating, Morningglory (pitted morningglory; Preemergence, 16 g ai/ha): 0
Plant response rating, Morningglory (pitted morningglory; Preemergence, 31 g ai/ha): 30
Sandbur plant response rating (southern sandbur; 62 g ai/ha, Preemergence): 100
Sandbur plant response rating (southern sandbur; 125 g ai/ha, preemergence): 100
Plant response rating, Sandbur (southern sandbur; Preemergence, 31 g ai/ha): 95
Horseweed plant response rating (Canada horseweed): 100
Black Mustard plant response rating (mustard; 62 g ai/ha, Preemergence): 100
Black Mustard plant response rating (mustard; 125 g ai/ha, preemergence): 100
Plant response rating, Black Mustard (mustard; Preemergence, 16 g ai/ha): 35
Plant response rating, Black Mustard (mustard; Preemergence, 31 g ai/ha): 80
Guineagrass plant response rating (guineagrass; 62 g ai/ha, Preemergence): 100
Guineagrass plant response rating (guineagrass; 125 g ai/ha, preemergence): 100
Plant response rating, Guineagrass (guineagrass; Preemergence, 16 g ai/ha): 70
Plant response rating, Guineagrass (guineagrass; Preemergence, 31 g ai/ha): 90
Foxtail, Green plant response rating (green foxtail; 62 g ai/ha, Preemergence): 80
Foxtail, Green plant response rating (green foxtail; 125 g ai/ha, preemergence): 90
Plant response rating, Foxtail, Green (green foxtail; Preemergence, 16 g ai/ha): 5
Plant response rating, Foxtail, Green (green foxtail; Preemergence, 31 g ai/ha): 35
Barnyardgrass plant response rating (barnyardgrass; 62 g ai/ha, Preemergence): 95
Barnyardgrass plant response rating (barnyardgrass; 125 g ai/ha, preemergence): 98
Plant response rating, Barnyardgrass (barnyardgrass; Preemergence, 16 g ai/ha): 75
Plant response rating, Barnyardgrass (barnyardgrass; Preemergence, 31 g ai/ha): 95
Field Bindweed plant response rating (field bindweed; 62 g ai/ha, Preemergence): 60
Field Bindweed plant response rating (field bindweed; 125 g ai/ha, preemergence): 75
Plant response rating, Field Bindweed (field bindweed; Preemergence, 16 g ai/ha): 0
Plant response rating, Field Bindweed (field bindweed; Preemergence, 31 g ai/ha): 0
Quackgrass plant response rating (quackgrass; 62 g ai/ha, Preemergence): 75
Quackgrass plant response rating (quackgrass; 125 g ai/ha, preemergence): 90
Plant response rating, Quackgrass (quackgrass; Preemergence, 16 g ai/ha): 0
Plant response rating, Quackgrass (quackgrass; Preemergence, 31 g ai/ha): 60

From patent US20100298141A1, “SUBSTITUTED PYRIDINE N-OXIDE HERBICIDES” (E. I. DU PONT DE NEMOURS AND COMPANY, priority 2007, published 2010)
